Our source for the melting point values is a melting point compilation (Tetko et al.; mined from patent text by program, amines drawn as free bases though some values may be those of a salt).

A word on the melting point: it is the temperature, or range, at which the solid turns liquid.

Regarding `CC1=C(C(=O)OCCOc2ccccc2)C(c2cccc(Cl)c2C)C2=C(CNCC2=O)N1` (stereo not drawn), the melting point fell in the range of 233 to 235 °C.

For the compound `Cn1ncc(C(=O)N2CCC2)c1C(=O)Nc1ccc2nc(-c3ccccc3)nn2c1`, the melting point lay within 235 to 236 °C.

The compound `CC/C=C/Cn1c(Sc2cc(C)cc(C)c2)c(CC)c(=O)[nH]c1=O` yielded a melting point of 129 to 130 °C. As for `COC(=O)c1ccc(Cc2cn(C)c3ccc(C=O)cc23)c(OC)c1`, the melting point is 116 to 118 °C. Take `O=C(NCCCl)NCc1cccnc1`: the melting point is 95 °C.

`Cn1nc(-c2cnc3[nH]cc(C(=O)NCC(C)(C)CO)c3n2)c2ccc(F)cc21` gave a melting point of 291 to 293 °C. As for `CN=C1SCN(Cc2ccccc2)C(=O)N1C`, the figure is 93 to 95 °C; as for `Cc1cccc(COc2cccnc2NC(=S)Nc2ccc(Cl)cc2)c1F`, 184 to 187 °C.

`CCOC(=O)c1ccc(NC(=O)C=C(c2ccccc2)c2ccccc2)cc1`: the melting point was in the range of 166 to 169 °C. In turn, `COc1cc(OC)c(C2=CCN(C)CC2)c(O)c1C(C)=O` returned a melting point of 143 to 144 °C. As to `O=C1OCC(C(F)(F)F)N1c1nc(-c2ccc(Br)cc2)cs1` (stereo not drawn), the melting point lay in the range of 154 to 156 °C. With `CS(=O)(=O)c1ccc(-n2nc(C(F)(F)F)cc2-c2ccc(-c3ccco3)cc2)cc1Cl`, the melting point was 139 to 142 °C. In the case of `O=C(COc1cccc(CCNS(=O)(=O)c2ccc(Br)cc2)c1)Nc1nnn[nH]1` it was 205 to 206 °C. Compound `COc1cnn(C)c(=O)c1Cl` gave a melting point of 189 to 191 °C. As for `Cn1nc(-c2ncc(Cl)cc2F)c([N+](=O)[O-])c1OC(F)F`, the figure is 108 to 109 °C.

In turn, `N#Cc1cc(-c2c3ccccc3cc3sc4ccccc4c23)ccc1O` returned a melting point of 231 to 232 °C. In turn, `CCCCCCCCCCCCCCCCC(O)CN` (stereo not drawn) gave a melting point of 75.2 to 76.5 °C.

With `CN(C)C(=O)C1Cc2cc(Cl)ccc2NC1=O` (stereo not drawn), the melting point lay within 302 to 305 °C. With `CCSc1cc(C)nc(SCC)c1NC(=O)CN1CCN(CCSc2nc3ccc(COC)c(COC)c3o2)CC1`, the melting point fell in the range of 118 to 120 °C. For `CC(C)c1cc(-c2ccc(F)cc2)cc(-c2ccc(F)cc2)c1C=O`, the melting point lay within 110 to 112 °C. As to `O=C(O)Cc1coc2cc(OCc3cc(-c4ccc(C(F)(F)F)cc4)on3)ccc12`, the melting point worked out at 201 °C. Turning to `O=C(O)CCc1oc(-n2cnc3ccccc32)nc1-c1ccc(Cl)cc1`, the melting point was in the range of 217 to 218 °C.

For `COC(=O)Cc1c(F)cccc1Cl`, the melting point lay in the range of 79 to 80 °C. `CCOC(=O)c1c(Nc2cccc(SC)c2)n[nH]c1C`: the melting point is 192 to 194 °C. As to `COc1ccc2c(c1)CCC(C(=O)Cl)C2` (stereo not drawn), the melting point was in the range of 162 to 164 °C. Compound `O=[N+]([O-])c1ccc(-c2cnc3nc(SCc4ccccc4)nn3c2)cc1` had a melting point of 195 to 199 °C. Take `CN1CCN(N(c2ccccc2)c2nc3c(-c4c(F)cccc4F)n[nH]c3s2)CC1`: the melting point was 208 to 210 °C. As for `Nc1ccc2[nH]cc(C3=CCN4CCCC4C3)c2c1` (stereo not drawn), the melting point fell in the range of 208 to 210 °C. In turn, `COc1ccc(N2CCN(c3ccc(-n4cccn4)cc3)CC2)cc1` displayed a melting point of 208 °C.

Turning to `O=C(Nc1ccc(-c2c[nH]c(=O)cn2)cc1)c1ccc([N+](=O)[O-])cc1`, the melting point was in the range of 298 to 300 °C.

Take `CCCC1=C(C#N)C(c2ccccc2Cl)c2c(n[nH]c2C(C)(C)C)N1` (stereo not drawn): the melting point was over 270 °C. `COc1ccc(Cn2c(=O)c(C(=O)NC3CCCCC3)c(O)c3cc(Cl)cnc32)cc1` registered a melting point of 193 °C. `CN1CNC(=S)N(c2ccc(Cl)cc2)C1` returned a melting point of 178 to 179 °C. With `O=C(c1ccc([N+](=O)[O-])c([N+](=O)[O-])c1)N1CCOCC1`, the melting point was in the range of 136 to 137 °C. Take `CCOC(=O)Cc1cc(CC)c(C(=O)c2ccc(Cl)cc2)n1C`: the melting point lay within 73 to 75 °C. For `CCCCCCCCCCCCc1nnn(C(CCCCC)C(=O)Nc2c(OC)cc(OC)cc2OC)n1` (stereo not drawn), the melting point fell in the range of 152 to 155 °C.

For the compound `OCC1(c2ccccc2)CCCCC1`, the melting point was 63 to 64 °C.

In turn, `O=C(COCc1csc(-c2ccc(F)cc2)n1)c1ccccc1` yielded a melting point of 104 to 106 °C. `Cc1ccc(C(=O)CCN(C)Cc2cccc3ccccc23)cc1` returned a melting point of 92 to 95 °C. In the case of `COc1ccc(-c2ccc(N)nn2)cc1OC1CCCC1`, the melting point came to 207 °C. Regarding `O=CCCCCCCCCCCC(=O)O`, the melting point fell in the range of 53 to 54 °C.

`N#Cc1ccccc1NC(=O)c1ccc(-n2nc(C(F)(F)F)cc2C(F)(F)F)cc1` came in with a melting point of 203 to 205 °C. Turning to `CCOC(=O)c1cc(=O)c2ccc(O)cc2o1`, the melting point was in the range of 221 to 223 °C. As for `CC1OC(Sc2ccccc2)C(OCc2ccccc2)C(OC(=O)c2ccccc2)C1OC(=O)c1ccccc1` (stereo not drawn), the figure is 98 to 100 °C; as for `CC(=O)Nc1ccc(C)cc1C(=O)c1ccc(F)cc1`, 140 to 145 °C; as for `CC1NCc2ccsc2C1c1ccccc1` (stereo not drawn), 78 °C. In turn, `Cc1c(N)cccc1CO` had a melting point of 104 to 106 °C. In turn, `CC(C)C(NC(=O)Nc1ccc(C(=O)NCC(=O)N(C)C)cc1)C(=O)N1CCCC1C(=O)NC(C(=O)C(F)(F)F)C(C)C` (mixture of isomers) came in with a melting point of 115 to 125 °C. `O=C(N[C@@H](Cc1ccccc1)[C@@H](O)[C@H](O)[C@H](Cc1ccccc1)NC(=O)OCc1cccnc1)OCc1cccnc1` gave a melting point of 180 to 186 °C. In the case of `CC1(C)COC(c2ccccc2-c2ccc(CO)cc2)=N1`, the melting point is 97 to 100 °C. `CCc1cccc(Nc2nc(OCC3CCCCC3)c3[nH]cnc3n2)c1` showed a melting point of 180 to 183 °C. As to `CCOCN1C(C)=C(C(=O)OC)C(c2cccc([N+](=O)[O-])c2)C(C(=O)OC)=C1C`, the melting point was in the range of 86 to 88 °C.

With `O=C(O)CCNC1CCCN(c2ccc3c(C(=O)NCC45CC6CC(CC(C6)C4)C5)c(Cl)ccc3n2)C1` (stereo not drawn), the melting point was 176 to 189 °C. `CC(=O)SCC(C)C(=O)N(C1Cc2ccccc2C1)[C@@H](C)C(=O)O` (stereo partly drawn) showed a melting point of 140 to 142 °C. `COc1ccc2c(c1)CC(N(C)CCCN1CCc3cc(OC)c(OC)cc3NC1=O)CC2` (stereo not drawn) had a melting point of 163 to 165 °C. In the case of `COc1ccc(C2(O)CCN(CC(O)c3ccc(OCc4ccccc4)cc3)CC2)cn1` (stereo not drawn) it was 199 °C. In the case of `CS(=O)(=O)Nc1cccc(Nc2nc(NCCc3c[nH]cn3)c3nc[nH]c3n2)c1`, the melting point was in the range of 205 to 210 °C.

In turn, `CCn1c(=O)c2[nH]c(/C=C/c3ccc(OC)c(Br)c3)nc2n(CC)c1=O` had a melting point of over 280 °C. For the compound `Cc1cc(C(N)=O)ncc1C(c1c(F)ccc(F)c1F)S(=O)(=O)CCCC(F)(F)F` (stereo not drawn), the melting point fell in the range of 201 to 203 °C. `O=C1c2c(Cl)cccc2-n2c1nc1ccccc1c2=O` came in with a melting point of 294 to 296 °C. In turn, `CC(C)(CNC(=O)CN1CCCC1=O)N1CCCCC1` came in with a melting point of 69 °C. As to `Cc1nc(C)c(Cl)c(CNCc2ccc(O)cn2)n1`, the melting point was 137 to 138 °C.

The compound `CN(C)S(=O)(=O)Cc1ccccc1N` came in with a melting point of 70 to 78 °C.

The compound `COc1cc(CNc2nc(C)nc(C)c2Cl)ccc1O` had a melting point of 179 to 182 °C. Turning to `CCOC(=O)CCN(C(C)(C)C(=O)NO)S(=O)(=O)c1ccc(Oc2ccc(F)cc2)cc1`, the melting point is 125 °C. As for `O=C(Nc1ccc2ccc(-c3cccc(Br)c3)nc2n1)c1ccccc1`, the figure is 204 to 206 °C. Compound `COC(=O)c1ccc(C)c(-n2c(C)cc(OCc3ccc(F)cc3CNC(=O)Nc3cc(C(C)(C)C)nn3-c3ccc(O)c(Cl)c3)c(Cl)c2=O)c1` came in with a melting point of 197 to 200 °C. The compound `O=C(O)COc1cccc(CSc2nc(-c3ccccc3)c(-c3ccccc3)[nH]2)c1` displayed a melting point of 233 to 235 °C. Consider `CC(C)N(Cc1ccc2cc(NC(=O)c3ccc(-c4ccc(Cl)cc4)nc3)ccc2n1)C(C)C`, for which the melting point is 201 to 203 °C. In the case of `O=C(NC1CCN(CCC(O)c2ccc3c(c2)OCCO3)CC1)c1ccccc1` (stereo not drawn) it was 193 to 197 °C. In turn, `COC(=O)c1ccc(OCC2CC(=O)N(c3ccc(OC(C)(C)C)cc3)C2)cc1` (stereo not drawn) gave a melting point of 126 to 128 °C.

Take `COc1c(Cc2ccccc2)cc(S(N)(=O)=O)c2ccccc12`: the melting point lay within 159 to 161 °C. In the case of `N#Cc1ccc(CCC(O)C2CC2)cc1` (stereo not drawn) it was 70 to 71 °C. On to `Cc1cc(NC(c2ccccc2)(c2ccccc2)c2ccccc2)no1`, for which the melting point was in the range of 196 to 199 °C. In the case of `CC(=O)NCCC1CCc2ccc3nc(C4CC4)oc3c21` (stereo not drawn) it was 92 to 95 °C; in that of `CN1C(=O)CN(c2cccc(C(F)(F)F)c2)NC1=O`, 163 to 165 °C. As for `O=S1(=O)N(CCCN2CCN(c3ccc(F)cc3)CC2)c2cccc3c2N1CCC3`, the figure is 98 °C; as for `CCN1c2ncccc2C(=O)Nc2c(C)cc(N3CCCCC3CCO)nc21` (stereo not drawn), 234 to 237 °C.

`COc1ccccc1-c1cc(Cl)cc2c1NC(CN)CO2` (stereo not drawn) displayed a melting point of 100 °C. `Cc1nc(C(=O)N(C)C)c2n1-c1ccc(Cl)cc1C(c1ccccc1Cl)=NC2` came in with a melting point of 225 to 230 °C.

`COc1ccc(C2=NO[C@]3(CCOC3)C2)cc1OC1Cc2ccccc2C1` showed a melting point of 138 °C. As for `CCCCCC(CC(=O)Nc1cc(C(N)=O)ccc1C(C)(C)C)c1cc(F)c(OC)cc1OC` (stereo not drawn), the figure is 150 °C.

`CCOC(=O)[C@H]1CC(OC(C)=O)CN1S(=O)(=O)c1ccc(C)cc1` (stereo partly drawn) returned a melting point of 82 to 83 °C. On to `Cc1cc2c(cc1-c1ccc(C=O)s1)C(C)(C)CCC2(C)C`, for which the melting point was in the range of 130 to 135 °C. For the compound `CCC(C(=O)O)c1cccc(Oc2ccccc2Cl)c1O` (stereo not drawn), the melting point is 143 to 145 °C. As for `O=C1CCC(N2C(=O)c3ccc(CNC(=O)c4cc5ccccc5s4)cc3C2=O)C(=O)N1` (stereo not drawn), the figure is 318 to 320 °C; as for `O=C(c1ccccc1)c1c(O)cc(-c2ccccc2)oc1=O`, 171 to 173 °C. `CC(C)(C)c1cc(NC(=O)C2CCCCC2C(=O)O)cc(C(C)(C)C)c1O` (stereo not drawn) registered a melting point of 247 to 252 °C.
